# How the values were obtained:
# [1] = tested on: NSP14 ExoN; conditions: cited from earlier work
# [2] = target: HNMT (Homo sapiens, UniProt P50135); experiment: HNMT specificity screen; format: biochemical
# [3] = target: NSP10–14 ExoN (Severe acute respiratory syndrome coronavirus 2, UniProt P0DTD1); format: biochemical, SARS-CoV-2
# [4] = target: RNase H (Escherichia coli, UniProt P0A7Y4)
# Sequence of RNase H (P0A7Y4 whole entry): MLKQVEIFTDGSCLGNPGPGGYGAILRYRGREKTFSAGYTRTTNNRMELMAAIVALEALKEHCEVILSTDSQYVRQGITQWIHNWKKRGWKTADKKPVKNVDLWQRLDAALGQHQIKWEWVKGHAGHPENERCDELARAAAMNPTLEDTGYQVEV
# Sequence of HNMT (P50135 whole entry): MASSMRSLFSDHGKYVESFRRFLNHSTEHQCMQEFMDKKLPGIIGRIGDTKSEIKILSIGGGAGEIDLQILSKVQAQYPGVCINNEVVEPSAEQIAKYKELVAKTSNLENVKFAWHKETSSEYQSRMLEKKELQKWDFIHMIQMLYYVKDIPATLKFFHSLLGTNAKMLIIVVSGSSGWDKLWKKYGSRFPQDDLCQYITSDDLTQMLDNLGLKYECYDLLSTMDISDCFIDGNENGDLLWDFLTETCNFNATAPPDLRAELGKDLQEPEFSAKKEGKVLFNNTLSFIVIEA
SMILES,"inhibition of NSP14 ExoN activity, affinity [1]",activity against HNMT (off-target) [2],"effect on VMAX, ExoN RNA substrate [3]",mechanism of inhibition with respect to ExoN RNA substrate [3],change in KM for ExoN RNA substrate ([3]; concentrations below 2 μM of compound),activity against RNase H (off-target) [4],potency difference between NSP14 ExoN and RNase H [4]
O=C1C=C2C(=CCOC2O)O1 (stereo not shown) [Patulin],micromolar affinity,,,,,,
CC(=O)N1CCN(c2ccc(C(=O)N3CCN(Cc4ccccc4)CC3)nn2)C(=O)C1 [NCGC00537446],,some activity,more clearly influenced,noncompetitive,no significant change,some activity,greater than 10 fold

# — PMC12965331 (Biochemistry, 2025)
